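Assay format: 96-well plates, 48-hour exposure. Abbreviation: GI50, concentration required for 50% inhibition of growth.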 The source made the active and inactive calls. Rule as the data show it: active = GI50 up to about 1.1 µM and inactive = higher.
Tests used:
Experiment in all cases: NCI anticancer screen, dose series, 48 h
[1] = system: A498
[2] = system: ACHN
[3] = system: CAKI-1
[4] = system: CCRF-CEM
[5] = system: HCT-116
[6] = system: K562
[7] = system: MCF7
[8] = system: MDA-MB-435
[9] = system: NCI-H23
[10] = system: NCI-H522
[11] = system: OVCAR-3
[12] = system: PC-3
[13] = system: RPMI-8226
[14] = system: SF-268
[15] = system: SK-MEL-28
[16] = system: SN12C
[17] = system: SR
[18] = system: T47D
[19] = system: UO-31
[20] = system: IGROV-1

Measured: GI50

O=C1/C(=C\c2cccc(Oc3ccccc3)c2)SC(c2ccccc2)N1c1ccc(Cl)cc1 (stereo not drawn)
inactive: [1] > 95.9 µM | [2] 20.2 µM | [3] > 60.3 µM | [4] 5.89 µM | [5] 10.3 µM | [6] 2.64 µM | [7] 16.3 µM | [8] 2.24 µM | [9] 15.8 µM | [10] 10.2 µM | [11] 41.4 µM | [12] 63.2 µM | [13] 5.78 µM | [14] 18.2 µM | [15] 64.9 µM | [16] 26.7 µM | [17] 3.91 µM | [18] 5.37 µM | [19] 16 µM

COc1ccc(CC/N=C2\OCc3ccccc32)cc1OC
inactive: [1] > 100 µM | [2] 52.5 µM | [3] 62.4 µM | [4] 29.1 µM | [5] 24 µM | [20] 67 µM | [6] 23.4 µM | [7] 27.7 µM | [8] 43.2 µM | [9] 32.7 µM | [12] 46.9 µM | [15] > 100 µM | [16] 69.3 µM | [17] 11.5 µM | [18] 27.5 µM | [19] 69 µM

Fc1cccc(F)c1C1SCC2=Nc3ccccc3CN21 (stereo not drawn)
inactive: [1] > 100 µM | [2] 33.7 µM | [3] > 100 µM | [4] > 100 µM | [5] 26.5 µM | [20] 42.5 µM | [6] 92.3 µM | [7] 35 µM | [8] > 100 µM | [9] 39.8 µM | [11] 19 µM | [12] 30.8 µM | [13] 56.1 µM | [14] > 10 µM | [15] > 100 µM | [16] > 100 µM | [17] 37.8 µM | [18] 49.7 µM | [19] 96.6 µM

COC(=O)c1ccc(OCc2ccc3nc(-c4ccccc4)c(Cl)nc3c2)cc1
inactive: [1] > 100 µM | [2] 48.8 µM | [3] 28.6 µM | [4] > 100 µM | [5] 83 µM | [20] 85.5 µM | [7] > 100 µM | [8] 74.8 µM | [9] 47.2 µM | [10] 11.8 µM | [11] > 100 µM | [12] > 100 µM | [13] > 100 µM | [14] 42.9 µM | [15] > 100 µM | [16] > 100 µM | [17] > 100 µM | [18] > 100 µM | [19] > 100 µM

Cc1occc1C(=S)Nc1ccc(Cl)c(C(=O)OC(C)C2CC2)c1 (stereo not drawn)
inactive: [1] 22.3 µM | [2] 17.3 µM | [3] 18.7 µM | [4] 50.1 µM | [5] 26.5 µM | [20] 16 µM | [7] 26 µM | [8] 24.8 µM | [9] 15.6 µM | [10] 14.4 µM | [11] 16.6 µM | [12] 18.9 µM | [13] 24.8 µM | [14] 22.6 µM | [15] 57.9 µM | [16] 18 µM | [17] 18.3 µM | [18] 19.1 µM | [19] 14.7 µM

CSc1nc(SC)c2c(C)c(Br)[nH]c2n1
inactive: [1] > 100 µM | [2] > 100 µM | [3] > 100 µM | [4] > 100 µM | [5] > 100 µM | [20] > 100 µM | [7] 30.9 µM | [8] > 100 µM | [9] > 100 µM | [10] > 100 µM | [11] > 100 µM | [12] > 100 µM | [13] > 100 µM | [14] > 100 µM | [15] > 100 µM | [16] > 100 µM | [17] > 100 µM | [18] > 100 µM | [19] > 100 µM

CCOC(=O)NC(Nc1ccc(C(=O)OCC)cc1)(C(F)(F)F)C(F)(F)F
inactive: [1] > 100 µM | [2] 42.7 µM | [4] 6.58 µM | [5] > 100 µM | [20] 56.8 µM | [6] 9.29 µM | [7] > 100 µM | [8] 51.2 µM | [9] > 100 µM | [10] > 100 µM | [11] > 100 µM | [12] 45 µM | [13] > 100 µM | [14] > 100 µM | [15] > 100 µM | [16] > 100 µM | [17] 86.3 µM | [18] 49 µM | [19] 42.5 µM

Nc1sc2c(c1C(=O)c1ccc(Cl)c(Cl)c1)CCCC2
inactive: [2] 67.3 µM | [3] 56.8 µM | [4] 26.4 µM | [5] 40.4 µM | [6] 25.5 µM | [7] 18.7 µM | [8] 30.8 µM | [9] 45.3 µM | [10] 21 µM | [11] 60.4 µM | [12] 44.1 µM | [13] 17.8 µM | [14] 45.8 µM | [15] > 100 µM | [16] > 100 µM | [17] 27.8 µM | [18] 36.2 µM | [19] 58.2 µM

Reference: ChEMBL document CHEMBL1201862, “PubChem BioAssay data set” (2004)
